Test results from ChEMBL document CHEMBL2073793, “An in vitro evaluation of human cytochrome P450 3A4 and P-glycoprotein inhibition by garlic” (J Pharm Pharm Sci, 2001).

Target: ATP-dependent translocase ABCB1 (Homo sapiens, UniProt P08183)
Experiment: TP_TRANSPORTER: ATP hydrolysis GENTEST
Format: functional

ATP-dependent translocase ABCB1, sequence (P08183 whole entry): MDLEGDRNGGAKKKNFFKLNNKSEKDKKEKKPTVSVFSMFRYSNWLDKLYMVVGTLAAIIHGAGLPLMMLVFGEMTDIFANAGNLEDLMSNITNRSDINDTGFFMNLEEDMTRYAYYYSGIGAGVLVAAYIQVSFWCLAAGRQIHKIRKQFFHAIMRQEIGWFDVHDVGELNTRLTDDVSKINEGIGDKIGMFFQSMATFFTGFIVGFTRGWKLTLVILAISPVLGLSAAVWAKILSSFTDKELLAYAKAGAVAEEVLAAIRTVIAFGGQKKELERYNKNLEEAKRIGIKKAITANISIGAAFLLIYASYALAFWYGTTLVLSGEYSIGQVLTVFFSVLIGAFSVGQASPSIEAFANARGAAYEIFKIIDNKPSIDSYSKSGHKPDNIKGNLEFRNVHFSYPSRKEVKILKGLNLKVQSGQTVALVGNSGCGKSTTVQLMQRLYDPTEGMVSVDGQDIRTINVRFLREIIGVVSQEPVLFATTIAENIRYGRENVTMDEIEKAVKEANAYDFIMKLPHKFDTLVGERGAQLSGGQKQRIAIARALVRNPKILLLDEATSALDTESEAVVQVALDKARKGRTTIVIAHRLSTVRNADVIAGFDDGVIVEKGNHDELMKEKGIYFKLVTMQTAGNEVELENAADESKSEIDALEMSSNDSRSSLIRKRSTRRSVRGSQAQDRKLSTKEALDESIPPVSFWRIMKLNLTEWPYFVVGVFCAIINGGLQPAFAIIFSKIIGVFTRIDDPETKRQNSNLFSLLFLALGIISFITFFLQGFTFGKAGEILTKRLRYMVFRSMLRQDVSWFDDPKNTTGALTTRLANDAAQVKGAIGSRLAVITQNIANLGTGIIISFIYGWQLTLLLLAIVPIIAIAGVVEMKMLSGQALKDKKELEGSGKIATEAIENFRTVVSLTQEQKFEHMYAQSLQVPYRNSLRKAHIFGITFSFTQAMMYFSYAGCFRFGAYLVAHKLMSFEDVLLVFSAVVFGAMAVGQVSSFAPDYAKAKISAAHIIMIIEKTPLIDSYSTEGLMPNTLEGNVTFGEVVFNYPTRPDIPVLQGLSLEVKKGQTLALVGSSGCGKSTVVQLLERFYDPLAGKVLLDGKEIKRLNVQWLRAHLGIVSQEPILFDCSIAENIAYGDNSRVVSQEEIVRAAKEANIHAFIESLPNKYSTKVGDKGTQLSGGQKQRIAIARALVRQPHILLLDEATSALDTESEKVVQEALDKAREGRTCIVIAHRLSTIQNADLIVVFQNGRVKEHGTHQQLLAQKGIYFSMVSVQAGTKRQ

Substance: GARLIC
- Activity: substrate [+]
